# Test results from patent publication US12018058B2, “Compositions and methods for diagnosing and/or treating kidney injury” (Boston Medical Center Corporation, priority 2018, dated 2024).
# Experiments:
# [1] = system: PTEC; assay: Toxicity of pharmacologic agents in PTEC; format: cell-based; settings: exposure to the IC50 dose for 48-72 hr; data not shown
# Source text: The inventors have also tested pharmacologic agents that disrupt NPM-Bax at specific steps in the cell death pathway (outlined in FIG. 11). These agents include geronylgeronylacetone (GGA), a potent Hsp70 inducer86, avrainvillamide, and NSC34888437. […] The inventors recently reported that GGA induces Hsp70 in murine PTEC and in the intact murine kidney. Hsp70 markedly reduces NPM-Bax complex formation during ischemic stress by 2 distinct mechanisms: a nucleolar-restricted Hsp70 mutant limits NPM translocation into the cytosol, whereas a cytosol restricted Hsp70 mutant sequesters […].
# [2] = system: mice subjected to bilateral renal pedicle clamping; assay: Ischemic AKI by bilateral renal pedicle clamping (BUN, creatinine, survival); format: in vivo, C57BL/6J mice; settings: 28 min bilateral pedicle clamping
# Source text: All animals were maintained under the guidance and policies of the Boston University Animal Core facility using National Institutes of Health (NIH) and Institutional Animal Care and Use Committee guidelines. Male and female C57BL/6J mice were purchased from Jackson Laboratory (Bar Harbor, ME), and they were housed and bred at the Boston University Animal Core facility under license number AN-15024. […] Animas were handled in a manner consistent with the NIH guide for their care and use under Institutional Animal Care and Use Committee approval.
# Mice were subjected to bilateral renal pedicle clamping after being anesthetized with 2,2,2-tribromoethanol. […] 13,28,29 Slight variation in the clamp time was required to achieve similar degrees of renal dysfunction in the relatively large number of animals studied. The clamp was then removed, and reperfusion was confirmed by visual inspection of the kidneys. Sham ischemia was performed by encircling each renal pedicle with a nonocclusive ligature.
# For in vitro testing in primary human PTECs, peptides ([…]) were tested that replicate the Bax domain responsible for binding NPM,34 or two peptides designed to interfere with NPM function were compared with a random nonspecific sequence of the same length (control). Peptides intended to interfere with NPM function overlap key phosphorylation sites located at the NPM amino terminus (peptide 2) or carboxy terminus (peptide 3) detected by mass spectrometry. To improve cell uptake, all peptides contained a cell-penetrating sequence13. For in vivo experiments, a renal-targeting sequence (NLS) was added to enhance renal peptide uptake.35 Peptides were commercially synthesized (Biomatik, Wilmington, DE) J Am Soc Nephrol 30: ccc-ccc, 2018 Nucleophosmin in AKI 3www.jasn.org BASIC RESEARCHas follows: NPM-Bax blocking peptide: Ac-KKKRKV-(bA)-[…]-COOH (SEQ ID NO: 8); peptide 2: AC-PKKKRKV-(bA)-[…]-COOH (SEQ ID NO: 9); and peptide 3: AC-PKKKRKV-(bA)-ESFKK-QEKTPKTPKGPSSVED-IKAK-COOH (SEQ ID NO: 10). […] A total of 42 control and 56 experimental animals were studied.
# Transient exposure to metabolic inhibitors replicates ischemia in vivo by activating Bax and causing cell death.13,29,36-38 Cell viability was assayed using a modified colorimetric technique (MTTassay).37 The number of surviving cells is expressed as a percentage of viable control cells detected at baseline. Serum BUN and creatinine levels were measured in tail vein blood samples for 7 days after ischemia using QuantiChrom BUN or creatinine assay kits (BioAssay Systems, Hayward, CA) according to the manufacturer's instructions.
smiles,measurement,setting,value
"CC(=O)CC/C=C(\C)CC/C=C(\C)CC/C=C(\C)CCC=C(C)C [GGA, geronylgeronylacetone, reference compound]",PTEC morphology and toxicity,[1],does not alter PTEC morphology or cause significant toxicity
same,Animal survival,[2],all survived
same,Mean peak BUN,[2],100 m/dl
